Measured values as given in patent US8088806B2 (Achillion Pharmaceuticals, Inc., priority 2005, dated 2012).
Where a name gives a salt, the structure may show the parent alone.

What follows are compounds tested on HCV replicon (assay: Replicon based assay of HCV replication inhibition (NPT ELISA)). Details: Hepatitis C virus, Huh-7, 72 h, Table I; Huh-7 HCV replicon-containing cells, three days; read-out: Activity.
Type: cell-based, Hepatitis C virus
In short: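 NPT (neomycin phosphotransferase) content, proportional to replicon replication, quantified by capture ELISA on day four. Before that, replicon-bearing Huh-7 cells in G418-free screening medium were exposed three days at 37° C to compound, typically six doses from 10 to 0.03 micromolar, with equal DMSO across wells.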

**Q.** How did the EC50 turn out when `CCCCCc1ccc(Nc2nc(-c3cccc(F)c3)cs2)cc1` [compound 183, 4-(3-fluorophenyl)-N-(4-pentylphenyl)thiazol-2-amine] was run?
**A.** The EC50 was less than 1000 nM.

**Q.** Which EC50 does the source give for `CCCCCc1ccc(Nc2nc(-c3cc(-c4ccc(Cl)c(Cl)c4)no3)cs2)cc1` [compound 184, 4-(3-(3,4-dichlorophenyl)isoxazol-5-yl)-N-(4-pentylphenyl)thiazol-2-amine] here?
**A.** Its EC50 is greater than 10000 nM.

**Q.** Which EC50 does the source give for `CCCCCc1ccc(Nc2nc(-c3cc(C(=O)OCC)no3)cs2)cc1` [compound 185, ethyl 5-(2-(4-pentylphenylamino)thiazol-4-yl)isoxazole-3-carboxylate] here?
**A.** Its EC50 is greater than 10000 nM.

**Q.** For `CCCCCc1ccc(Nc2nc(-c3ccccc3Cl)cs2)cc1` [compound 186, 4-(2-chlorophenyl)-N-(4-pentylphenyl)thiazol-2-amine], which EC50 is on record?
**A.** The EC50 was greater than 10000 nM.

**Q.** For `Cc1sc(Nc2cccc(Oc3ccccc3)c2)nc1-c1ccc(CC(=O)O)cc1` [compound 187, 2-(4-(2-(3-phenoxyphenylamino)-5-methylthiazol-4-yl)phenyl)acetic acid], which EC50 is on record?
**A.** Its EC50 is less than 1000 nM.

**Q.** Which EC50 does the source give for `Fc1cccc(-c2csc(Nc3cccc(Oc4ccccc4)c3)n2)c1` [compound 188, 4-(3-fluorophenyl)-N-(3-phenoxyphenyl)thiazol-2-amine] here?
**A.** The EC50 was less than 1000 nM.

**Q.** Which EC50 does the source give for `Clc1ccc(-c2cc(-c3csc(Nc4cccc(Oc5ccccc5)c4)n3)on2)cc1Cl` [compound 189, 4-(3-(3,4-dichlorophenyl)isoxazol-5-yl)-N-(3-phenoxyphenyl)thiazol-2-amine] here?
**A.** The EC50 was greater than 10000 nM.

**Q.** `CCOC(=O)c1cc(-c2csc(Nc3cccc(Oc4ccccc4)c3)n2)on1` [compound 190, ethyl S-(2-(3-phenoxyphenylamino)thiazol-4-yl)isoxazole-3-carboxylate] was tested. Which EC50 did it give?
**A.** Its EC50 is greater than 10000 nM.

**Q.** `Clc1ccccc1-c1csc(Nc2cccc(Oc3ccccc3)c2)n1` [compound 191, 4-(2-chlorophenyl)-N-(3-phenoxyphenyl)thiazol-2-amine] was tested. Which EC50 did it give?
**A.** Its EC50 is less than 1000 nM.

**Q.** For `Cc1sc(Nc2cccc(OCc3ccccc3)c2)nc1-c1ccc(CC(=O)O)cc1` [compound 192, 2-(4-(2-(3-(benzyloxy)phenylamino)-5-methylthiazol-4-yl)phenyl)acetic acid], which EC50 is on record?
**A.** Its EC50 is less than 1000 nM.

**Q.** For `Fc1cccc(-c2csc(Nc3cccc(OCc4ccccc4)c3)n2)c1` [compound 193, N-(3-(benzyloxy)phenyl)-4-(3-fluorophenyl)thiazol-2-amine], which EC50 is on record?
**A.** Its EC50 is less than 1000 nM.

**Q.** For `Clc1ccc(-c2cc(-c3csc(Nc4cccc(OCc5ccccc5)c4)n3)on2)cc1Cl` [compound 194, N-(3-(benzyloxy)phenyl)-4-(3-(3,4-dichlorophenyl)isoxazol-5-yl)thiazol-2-amine], which EC50 is on record?
**A.** The EC50 was greater than 10000 nM.

**Q.** How did the EC50 turn out when `CCOC(=O)c1cc(-c2csc(Nc3cccc(OCc4ccccc4)c3)n2)on1` [compound 195, ethyl 5-(2-(3-(benzyloxy)phenylamino)thiazol-4-yl)isoxazole-3-carboxylate] was run?
**A.** Its EC50 is greater than 10000 nM.

**Q.** `Clc1ccccc1-c1csc(Nc2cccc(OCc3ccccc3)c2)n1` [compound 196, N-(3-(benzyloxy)phenyl)-4-(2-chlorophenyl)thiazol-2-amine] was tested. Which EC50 did it give?
**A.** Its EC50 is less than 1000 nM.

**Q.** `CCCCCOc1ccc(Nc2nc(-c3ccc(CC(=O)O)cc3)c(C)s2)cc1C(F)(F)F` [compound 197, 2-(4-(2-(3-(trifluoromethyl)-4-(pentloxy)phenylamino)-5-methylthiazol-4-yl)phenyl)acetic acid] was tested. Which EC50 did it give?
**A.** The EC50 was less than 1000 nM.

**Q.** With `CCCCCOc1ccc(Nc2nc(-c3cccc(F)c3)cs2)cc1C(F)(F)F` [compound 198, N-(3-(trifluoromethyl)-4-(pentyloxy)phenyl)-4-(3-fluorophenyl)thiazol-2-amine] as the compound, how does the EC50 read?
**A.** Its EC50 is less than 1000 nM.

**Q.** With `CCCCCOc1ccc(Nc2nc(-c3ccc4c(c3)NC(=O)CO4)cs2)cc1C(F)(F)F` [compound 199, 6-(2-(3-(trifluoromethyl)-4-(pentyloxy)phenylamino)thiazol-4-yl)-2H-benzo[b][1,4]oxazin-3(4H)-one] as the compound, how does the EC50 read?
**A.** Its EC50 is less than 1000 nM.

**Q.** For `CCCCCOc1ccc(Nc2nc(-c3ccc(CC(=O)O)s3)cs2)cc1C(F)(F)F` [compound 200, 2-(5-(2-(3-(trifluoromethyl)-4-(pentyloxy)phenylamino)thiazol-4-yl)thiophen-2-yl)acetic acid], which EC50 is on record?
**A.** The EC50 was less than 1000 nM.

**Q.** Which EC50 does the source give for `CCCCCOc1ccc(Nc2nc(-c3cc(-c4ccc(Cl)c(Cl)c4)no3)cs2)cc1C(F)(F)F` [compound 201, 4-(3-(3,4-dichlorophenyl)isoxazol-5-yl)-N-(3-(trifluoromethyl)-4-(pentyloxy)phenyl)thiazol-2-amine] here?
**A.** The EC50 was greater than 10000 nM.

**Q.** With `CCCCCOc1ccc(Nc2nc(-c3cc(C(=O)OCC)no3)cs2)cc1C(F)(F)F` [compound 202, ethyl 5-(2-(3-(trifluoromethyl)-4-(pentyloxy)phenylamino)thiazol-4-yl)isoxazole-3-carboxylate] as the compound, how does the EC50 read?
**A.** The EC50 was less than 1000 nM.

**Q.** How did the EC50 turn out when `CCCCCOc1ccc(Nc2nc(-c3ccccc3Cl)cs2)cc1C(F)(F)F` [compound 203, 4-(2-chlorophenyl)-N-(3-(trifluoromethyl)-4-(pentyloxy)phenyl)thiazol-2-amine] was run?
**A.** Its EC50 is less than 1000 nM.

**Q.** Which EC50 does the source give for `CCCCCOc1ccc(Nc2nc(C(=O)CBr)cs2)cc1C(F)(F)F` [compound 204, 1-(2-(3-(trifluoromethyl)-4-(pentyloxy)phenylamino)thiazol-4-yl)-2-bromoethanone] here?
**A.** The EC50 was less than 1000 nM.

**Q.** For `COc1cccc2sc(Nc3nc(-c4ccncc4)cs3)nc12` [compound 205, 4-methoxy-N-(4-(pyridin-4-yl)thiazol-2-yl)benzo[d]thiazol-2-amine], which EC50 is on record?
**A.** The EC50 was less than 1000 nM.

**Q.** `Fc1ccc2nc(Nc3nc(-c4cccnc4)cs3)sc2c1` [compound 206, 6-fluoro-N-(4-(pyridin-3-yl)thiazol-2-yl)benzo[d]thiazol-2-amine] was tested. Which EC50 did it give?
**A.** The EC50 was 1000 to 10000 nM.

**Q.** How did the EC50 turn out when `COc1cccc2sc(Nc3nc(-c4cccnc4)cs3)nc12` [compound 207, 4-methoxy-N-(4-(pyridin-3-yl)thiazol-2-yl)benzo[d]thiazol-2-amine] was run?
**A.** The EC50 was 1000 to 10000 nM.

**Q.** Which EC50 does the source give for `CCCCCOc1ccc(Nc2nc(N)cs2)cc1C(F)(F)F` [compound 208, N2-(3-(trifluoromethyl)-4-(pentyloxy)phenyl)thiazole-2,4-diamine] here?
**A.** The EC50 was 1000 to 10000 nM.

**Q.** `CCCCCOc1ccc(Nc2nc(-c3ccc(C(=O)OC)cn3)cs2)cc1C(F)(F)F` [compound 211, methyl 6-(2-(3-(trifluoromethyl)-4-(pentyloxy)phenylamino)thiazol-4-yl)pyridine-3-carboxylate] was tested. Which EC50 did it give?
**A.** The EC50 was less than 1000 nM.

**Q.** How did the EC50 turn out when `CCCCCOc1ccc(Nc2nc(-c3ccc(C(=O)O)cn3)cs2)cc1C(F)(F)F` [compound 213, 6-(2-(3-(trifluoromethyl)-4-(pentyloxy)phenylamino)thiazol-4-yl)pyridine-3-carboxylic acid] was run?
**A.** Its EC50 is less than 1000 nM.

**Q.** With `FC(F)Oc1ccc(-c2csc(Nc3cccnc3)n2)cc1` [compound 214, N-(4-(4-(difluoromethoxy)phenyl)thiazol-2-yl)pyridin-3-amine] as the compound, how does the EC50 read?
**A.** The EC50 was greater than 10000 nM.

**Q.** With `CCCCCOc1ccc(Nc2nc(-c3ccc(C(=O)N(C)C)cn3)cs2)cc1C(F)(F)F` [compound 215, 6-(2-(3-(trifluoromethyl)-4-(pentyloxy)phenylamino)thiazol-4-yl)-N,N-dimethylpyridine-3-carboxamide] as the compound, how does the EC50 read?
**A.** Its EC50 is less than 1000 nM.

**Q.** How did the EC50 turn out when `CCCCCOc1ccc(Nc2nc(CN3CCNC(=O)C3)cs2)cc1C(F)(F)F` [compound 216, 4-((2-(3-(trifluoromethyl)-4-(pentyloxy)phenylamino)thiazol-4-yl)methyl)piperazin-2-one] was run?
**A.** Its EC50 is less than 1000 nM.

**Q.** `CCCCCOc1ccc(Nc2nc(CN3CCN(C)CC3)cs2)cc1C(F)(F)F` [compound 217, N-(3-(trifluoromethyl)-4-(pentyloxy)phenyl)-4-((4-methylpiperazin-1-yl)methyl)thiazol-2-amine] was tested. Which EC50 did it give?
**A.** Its EC50 is less than 1000 nM.

**Q.** How did the EC50 turn out when `CCCCCOc1ccc(Nc2nc(CN(C)CC(N)=O)cs2)cc1C(F)(F)F` [compound 218, 2-(N-((2-(3-(trifluoromethyl)-4-(pentyloxy)phenylamino)thiazol-4-yl)methyl)-N-methylamino)acetamide] was run?
**A.** Its EC50 is less than 1000 nM.

**Q.** `CCCCCOc1ccc(Nc2nc(-c3ccc(C(=O)N(C)CC(N)=O)nc3)cs2)cc1C(F)(F)F` [compound 221, 5-(2-(3-(trifluoromethyl)-4-(pentyloxy)phenylamino)thiazol-4-yl)-N-(carbamoylmethyl)-N-methylpyridine-2-carboxamide] was tested. Which EC50 did it give?
**A.** Its EC50 is less than 1000 nM.

**Q.** For `CCCCCOc1ccc(Nc2nc(-c3ccc(C(=O)N4CCNC(=O)C4)nc3)cs2)cc1C(F)(F)F` [compound 222], which EC50 is on record?
**A.** Its EC50 is less than 1000 nM.

**Q.** With `CCCCCOc1ccc(Nc2nc(-c3cn4ccccc4n3)cs2)cc1C(F)(F)F` [compound 223, N-(3-(trifluoromethyl)-4-(pentyloxy)phenyl)-4-(H-imidazo[1,2-a]pyridin-2-yl)thiazol-2-amine] as the compound, how does the EC50 read?
**A.** The EC50 was less than 1000 nM.

Same assay, conditions: Hepatitis C virus, replicon based assay of HCV replication inhibition; Table II; read-out: Activity

**Q.** `CCCCCOc1ccc(Nc2nc(C3CCCN(C(=O)OC(C)(C)C)C3)cs2)cc1C(F)(F)F` (centres unmarked) [compound 224, tert-butyl 3-(2-(4-(pentyloxy)-3-(trifluoromethyl)phenyl-amino)thiazol-4-yl)piperidine-1-carboxylate] was tested. Which EC50 did it give?
**A.** The EC50 was less than 1000 nM.

**Q.** `CCCCCOc1ccc(Nc2nc(C3CCCNC3)cs2)cc1C(F)(F)F` (centres unmarked) [compound 225, N-(4-(pentyloxy)-3-(trifluoromethyl)phenyl)-4-(piperidin-3-yl)thiazol-2-amine hydrochloride] was tested. Which EC50 did it give?
**A.** Its EC50 is 1000 to 10000 nM.

**Q.** Which EC50 does the source give for `CCCCCOc1ccc(Nc2nc(C3CCCN3C(=O)C(F)(F)F)cs2)cc1C(F)(F)F` (centres unmarked) [compound 226, 2,2,2-trifluoro-1-(2-(2-(4-(pentyloxy)-3(trifluoromethyl)phenyl-amino)thiazol-4-yl)pyrrolidin-1-yl)ethanone] here?
**A.** Its EC50 is 1000 to 10000 nM.

**Q.** For `CCCCCOc1ccc(Nc2nc(-c3cnc4scc(C)n34)cs2)cc1C(F)(F)F` [compound 227, 4-(3-methylimidazo[1,2-b]thiazol-5-yl)-N-(4-(pentyloxy)-3-(trifluoromethyl)phenyl)thia-zol-2-amine], which EC50 is on record?
**A.** The EC50 was less than 1000 nM.

**Q.** For `CCCCCOc1ccc(Nc2nc(C3=CSC4=NCCN34)cs2)cc1C(F)(F)F` [compound 228, 4-(5,6-dihydroimidazo[2,1-b]thiazol-3-yl)-N-(4-(pentyloxy)-3-(trifluoromethyl)phenyl)thia-zol-2-amine], which EC50 is on record?
**A.** The EC50 was less than 1000 nM.
